In US12673947B2 (Cytosinlab Therapeutics Co., Ltd., priority 2020, dated 2026):
Counter-ions that a name gives are not always drawn. Like-named read-outs stand apart in the source and are kept apart here.

Tests used:
[1] = system: MV4;11 cells; experiment: MV4;11 in vitro inhibition of proliferation assay (CellTiter-Glo, 72 hours); format: cell-based; settings: IC50 class, read-out: Inhibitory activity of cell proliferation MV4;11
Text: Biological Test Example 2: MV4;11 In Vitro Inhibition of Proliferation Assay
The MV4;11 cell lines were purchased from the cell bank of the Chinese Academy of Sciences, IMDM medium (Gibco, catalog number 12440), fetal bovine serum (Gibco, catalog number 10099141C), penicillin-streptomycin antibiotics (Gibco, catalog number 15140122), DMSO (Sigma, catalog number D2650), Celltiter-Glo kit (CTG) (Promega, catalog number G7573), 384-well clear flat-bottom black cell culture plate (Corning, catalog number 3764), D300e digital dispenser (Tecan, catalog number D300e), SpectraMax i3x microplate reader (MOLECULAR DEVICES, catalog number i3x)
MV4;11 cell was cultivated in IMDM, 10% fetal bovine serum, 1% penicillin-streptomycin antibiotics, and cell density was kept less than 1.0*10E6 cells per ml to ensure that it was always in logarithmic growth phase. Cell viability was greater than 95%.
The compounds to be tested was diluted by 3 times from 10 uM with DMSO to 9 concentrations. 60 nl diluted compound was added to the cell culture plate and three duplicates were set up.
The prepared MV4;11 cell suspension was added to the 384-well plate, and 20 microliters of cell suspension was added per well, i.e., each well contained 2000 MV4;11 cells, of which the final concentration of DMSO was 0.3%. The cell culture plate was placed in 37° C. and incubated in a 5% carbon dioxide incubator for 72 hours.
20 μL of Promega CellTiter-Glo reagent was added to per well, and the plate was incubated at room temperature for 10 minutes when the luminescence signals were stable. SpectraMax i3x microplate reader was used to read signals.
The original data was converted into inhibition rate, and the IC50 value (half inhibition concentration) of the compound was determined by fitting the nonlinear four-parameter curve.

[2] = molecular target: T1, FLT3 (Homo sapiens, UniProt P36888); experiment: FLT3 kinase in vitro inhibitory activity experiment (Caliper mobility shift, conversion rate); format: biochemical; settings: IC50 class, read-out: Enzyme activity FLT3
T1 construct: purchased Carna 08-145
T1 sequence (P36888 27-993): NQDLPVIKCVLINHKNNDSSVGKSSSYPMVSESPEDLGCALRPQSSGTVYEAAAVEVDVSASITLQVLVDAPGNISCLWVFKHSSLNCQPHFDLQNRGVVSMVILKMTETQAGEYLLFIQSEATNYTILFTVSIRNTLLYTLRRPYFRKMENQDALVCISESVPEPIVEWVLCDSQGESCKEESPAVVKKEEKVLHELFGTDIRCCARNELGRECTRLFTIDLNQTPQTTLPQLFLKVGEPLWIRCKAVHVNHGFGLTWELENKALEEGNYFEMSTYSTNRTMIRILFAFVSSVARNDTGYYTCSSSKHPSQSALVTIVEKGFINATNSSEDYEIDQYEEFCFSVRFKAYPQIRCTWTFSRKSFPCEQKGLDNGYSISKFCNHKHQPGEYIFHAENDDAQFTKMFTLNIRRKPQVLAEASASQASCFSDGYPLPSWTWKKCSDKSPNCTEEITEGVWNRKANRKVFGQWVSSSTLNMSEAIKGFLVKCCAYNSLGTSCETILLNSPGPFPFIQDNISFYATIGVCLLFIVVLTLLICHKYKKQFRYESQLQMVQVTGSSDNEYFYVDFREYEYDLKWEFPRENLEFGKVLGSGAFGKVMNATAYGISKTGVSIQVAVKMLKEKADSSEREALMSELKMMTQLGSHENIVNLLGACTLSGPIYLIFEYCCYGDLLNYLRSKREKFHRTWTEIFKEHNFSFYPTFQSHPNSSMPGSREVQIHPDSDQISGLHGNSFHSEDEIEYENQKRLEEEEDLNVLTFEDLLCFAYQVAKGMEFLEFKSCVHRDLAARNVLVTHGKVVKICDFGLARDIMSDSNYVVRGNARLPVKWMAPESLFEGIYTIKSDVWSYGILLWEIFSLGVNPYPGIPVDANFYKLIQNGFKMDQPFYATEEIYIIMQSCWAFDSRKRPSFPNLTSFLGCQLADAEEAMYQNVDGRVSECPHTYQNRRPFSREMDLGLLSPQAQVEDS
Protocol: Biological Test Example 1: FLT3 Kinase In Vitro Inhibitory Activity Experiment
Centrifuge (manufacturer: Eppendorf, model: 5430), microplate reader (manufacturer: Perkin Elmer, model: Caliper EZ Reader II), Echo 550 (manufacturer: Labcyte, model: Echo 550)
1. Kinase Reaction Process
• (1) 1×Kinase buffer was prepared. • (2) Preparation of the serial compound dilutions: the initial stock (the concentration of the tested compound was 1 μM) was diluted by 3-fold into 10 concentrations, and was single-well detected. The compounds were series diluted to solutions of 10 different concentration (100-folds final concentration) in 384-well plates. 250 nl of solution was transferred to each well of 384-well plate by Echo550. 100% DMSO (250 nl) was added to negative control wells and positive control wells respectively. • (3) Kinase solution (2.5 times final concentration) was prepared with 1×Kinase buffer. • (4) 10 μL of kinase solution (2.5 times final concentration) was added to compound wells and positive control wells respectively: 1×Kinase buffer (10 μL) was added to the negative control wells. • (5) The solution was centrifuged at 1000 rpm for 30 seconds, shaked and mixed, and incubated at room temperature for 10 minutes. • (6) The mixed solution of ATP and Kinase substrate 2 (25/15 times final concentration) was prepared with 1×Kinase buffer. • (7) 15 μL of mixed solution ATP and Kinase substrate 2 (25/15 times final concentration) was added to initiated the reaction. • (8) 384 well plate was centrifuged at 1000 rpm for 30 seconds, shaked and mixed, then incubated at room temperature for 30 minutes. • (9) Stop solution (30 μL) was added to stop kinase reaction, and the solution was centrifuged at 1000 rpm for 30 seconds, shaked and mixed. • (10) The conversion rate was read with Caliper EZ Reader II. 2. Data Analysis Formula for Calculation
Wherein: Conversion %_sample is the reading of the sample conversion; Conversion %_min: negative control well.

## CCc1nc2c(N)ncc(-c3cnn(C4CCC(C)(O)CC4)c3)c2nc1N[C@@H]1CC[C@H](O)C1 (single isomer, unassigned) [Compound 285]
[1]
  IC50: ≤ 10 nM
[2]
  IC50: ≤ 10 nM

## CCc1nc2c(N)nccc2nc1NC1CCOCC1 [Compound 1]
[1]; Homo sapiens, MV4-11, 72 h
  IC50: > 500 nM
[2]
  IC50: > 500 nM

## CCc1nc2c(N)ncc(Br)c2nc1NC1CCOCC1 [Compound 2, 8-Bromo-3-ethyl-N2-(tetrahydro-2H-pyran-4-yl)pyridino[3,4-b]pyrazine-2,5-diamine]
[1]; Homo sapiens, MV4-11, 72 h
  IC50: > 500 nM
[2]
  IC50: 100 to 500 nM

## CCc1nc2c(N)ncc(-c3cccc(OC)c3)c2nc1NC1CCOCC1 [Compound 3]
[1]; Homo sapiens, MV4-11, 72 h
  IC50: > 500 nM
[2]
  IC50: 10 to 100 nM

## CCc1nc2c(N)ncc(-c3ccc(N4CCC(N5CCN(C)CC5)CC4)cc3)c2nc1NC1CCOCC1 [Compound 7]
[1]; Homo sapiens, MV4-11, 72 h
  IC50: 10 to 100 nM
[2]
  IC50: ≤ 10 nM

## CCc1nc2c(N)ncc(-c3ccc(N4CCC(N5CCN(C)CC5)CC4)c(OC)c3)c2nc1NC1CCOCC1 [Compound 8, 3-ethyl-8-(3-methoxy-4-(4-(4-methylpiperazin-1-yl)piperidin-1-yl)phenyl)-N2-(tetrahydropyran-4-yl)pyrido[3,4-b]pyrazine-2,5-diamine trihydrochloride]
[1]; Homo sapiens, MV4-11, 72 h
  IC50: 10 to 100 nM
[2]
  IC50: ≤ 10 nM

## CCc1nc2c(Cl)ncc(-c3ccc(N4CCC(N5CCNCC5)CC4)c(OC)c3)c2nc1NC1CCOCC1 [Compound 11]
[1]; Homo sapiens, MV4-11, 72 h
  IC50: > 500 nM
[2]
  IC50: 10 to 100 nM

## CCc1nc2c(N)ncc(-c3ccc(N4CCC(N5CCN(C)CC5)CC4)c(C)c3)c2nc1NC1CCOCC1 [Compound 13]
[1]; Homo sapiens, MV4-11, 72 h
  IC50: 10 to 100 nM
[2]
  IC50: ≤ 10 nM

## CCc1nc2c(N)ncc(-c3ccc(N4CCC(N5CCN(C)CC5)CC4)c(F)c3)c2nc1NC1CCOCC1 [Compound 14]
[1]; Homo sapiens, MV4-11, 72 h
  IC50: 10 to 100 nM
[2]
  IC50: ≤ 10 nM

## CCc1nc2c(N)ncc(-c3ccc(N4CCC(N5CCN(C)CC5)CC4)c(C#N)c3)c2nc1NC1CCOCC1 [Compound 15]
[1]; Homo sapiens, MV4-11, 72 h
  IC50: 10 to 100 nM
[2]
  IC50: ≤ 10 nM

## CCc1nc2c(N)ncc(-c3ccc(N4CCC(N5CCN(C)CC5)CC4)c(C(F)(F)F)c3)c2nc1NC1CCOCC1 [Compound 16]
[1]; Homo sapiens, MV4-11, 72 h
  IC50: 10 to 100 nM
[2]
  IC50: ≤ 10 nM

## CCc1nc2c(N)ncc(-c3ccc(N4CCC(N5CCN(C)CC5)CC4)c(OC(F)(F)F)c3)c2nc1NC1CCOCC1 [Compound 17]
[1]; Homo sapiens, MV4-11, 72 h
  IC50: 10 to 100 nM
[2]
  IC50: ≤ 10 nM

## CCc1nc2c(N)ncc(-c3ccc(N4CCC(N5CCN(C)CC5)CC4)nc3)c2nc1NC1CCOCC1 [Compound 21]
[1]; Homo sapiens, MV4-11, 72 h
  IC50: 100 to 500 nM
[2]
  IC50: 10 to 100 nM

## CCc1nc2c(N)ncc(-c3ccc(N4CCC(N5CCN(C)CC5)CC4)c(OC(C)C)c3)c2nc1NC1CCOCC1 [Compound 22]
[1]; Homo sapiens, MV4-11, 72 h
  IC50: 10 to 100 nM
[2]
  IC50: ≤ 10 nM

## CCc1nc2c(N)ncc(-c3ccc(N4CCC(N5CCN(C)CC5)CC4)c(OCCOC)c3)c2nc1NC1CCOCC1 [Compound 23]
[1]; Homo sapiens, MV4-11, 72 h
  IC50: 10 to 100 nM
[2]
  IC50: ≤ 10 nM

## COc1cc(-c2cnc(N)c3nc(C)c(NC4CCOCC4)nc23)ccc1N1CCC(N2CCN(C)CC2)CC1 [Compound 26]
[1]; Homo sapiens, MV4-11, 72 h
  IC50: 100 to 500 nM
[2]
  IC50: 10 to 100 nM

## COc1cc(-c2cnc(N)c3nc(C(C)C)c(NC4CCOCC4)nc23)ccc1N1CCC(N2CCN(C)CC2)CC1 [Compound 27]
[1]; Homo sapiens, MV4-11, 72 h
  IC50: 10 to 100 nM
[2]
  IC50: ≤ 10 nM

## CCCc1nc2c(N)ncc(-c3ccc(N4CCC(N5CCN(C)CC5)CC4)c(OC)c3)c2nc1NC1CCOCC1 [Compound 28]
[1]; Homo sapiens, MV4-11, 72 h
  IC50: 10 to 100 nM
[2]
  IC50: ≤ 10 nM

## CCc1nc2c(N)ncc(-c3ccc(N4CCC5(CCN(C)CC5)CC4)c(C)c3)c2nc1NC1CCOCC1 [Compound 31]
[1]; Homo sapiens, MV4-11, 72 h
  IC50: 10 to 100 nM
[2]
  IC50: ≤ 10 nM

## CCc1nc2c(N)ncc(-c3ccc(N4CCC5(CCN(C)CC5)CC4)c(OC)c3)c2nc1NC1CCOCC1 [Compound 32]
[1]; Homo sapiens, MV4-11, 72 h
  IC50: 10 to 100 nM
[2]
  IC50: ≤ 10 nM

## CCc1nc2c(N)ncc(-c3ccc(N4CCC5(CC4)CN(C)C5)c(OC)c3)c2nc1NC1CCOCC1 [Compound 33]
[1]; Homo sapiens, MV4-11, 72 h
  IC50: 10 to 100 nM
[2]
  IC50: ≤ 10 nM

## CCc1nc2c(N)ncc(-c3ccc(N4CCC(N5CCNCC5)CC4)c(OC)c3)c2nc1NC1CCOCC1 [Compound 35]
[1]; Homo sapiens, MV4-11, 72 h
  IC50: 10 to 100 nM
[2]
  IC50: ≤ 10 nM

## CCc1nc2c(N)ncc(-c3ccc(N4CCN(C5CCN(C)CC5)CC4)c(OC)c3)c2nc1NC1CCOCC1 [Compound 36]
[1]; Homo sapiens, MV4-11, 72 h
  IC50: 10 to 100 nM
[2]
  IC50: ≤ 10 nM

## CCc1nc2c(N)ncc(-c3ccc(N4CCN(C)CC4)c(OC)c3)c2nc1NC1CCOCC1 [Compound 37]
[1]; Homo sapiens, MV4-11, 72 h
  IC50: 10 to 100 nM
[2]
  IC50: ≤ 10 nM

## CCc1nc2c(N)ncc(-c3ccc(N4CCOCC4)c(OC)c3)c2nc1NC1CCOCC1 [Compound 38]
[1]; Homo sapiens, MV4-11, 72 h
  IC50: 10 to 100 nM
[2]
  IC50: ≤ 10 nM

## CCc1nc2c(N)ncc(-c3ccc(N4CCC(O)CC4)c(OC)c3)c2nc1NC1CCOCC1 [Compound 39]
[1]; Homo sapiens, MV4-11, 72 h
  IC50: 10 to 100 nM
[2]
  IC50: ≤ 10 nM

## CCc1nc2c(N)ncc(-c3cccc(CN4CCC(N5CCN(C)CC5)CC4)c3)c2nc1NC1CCOCC1 [Compound 43, 3-ethyl-8-(3-((4-(4-methylpiperazine-1-yl)piperidine-1-yl)methyl)phenyl)-N2-(tetrahydro-2H-pyran-4-yl)pyrido[3,4-b]pyrazine-2,5-diamine]
[1]; Homo sapiens, MV4-11, 72 h
  IC50: 100 to 500 nM
[2]
  IC50: 10 to 100 nM

## CCc1nc2c(N)ncc(-c3ccc(CN4CCC(N5CCN(C)CC5)CC4)c(OC)c3)c2nc1NC1CCOCC1 [Compound 44]
[1]; Homo sapiens, MV4-11, 72 h
  IC50: > 500 nM
[2]
  IC50: 10 to 100 nM
